Key:
rats with induced SAH = experiment: Physiological parameters in operated SAH rats; assay type: in vivo, rat; conditions: sham, SAH+vehicle and treated SAH groups
From the text: Subarachnoid hemorrhage was induced by a model originally devised by Svendgaard et al and carefully described by Prunell et al (2003). Male Sprague-Dawley rats (350-400 g) were anaesthetized using 5% halothane (Halocarbon Laboratories, River Edge, N.J.) in N2O/O2 (30:70). The rat was intubated and artificially ventilated with inhalation of 0.5-1.5% halothane in N2O/O2 (70:30) during the surgical procedure. The depth of anaesthesia was carefully monitored and the respiration checked by regularly withdrawing arterial blood samples for blood gas analysis (Radiometer, Copenhagen, Denmark). An electric temperature probe was inserted into the rectum of the rat to record the temperature, which was maintained at 37° C. An arterial catheter to measure blood pressure was placed in the tail artery and a catheter to monitor intracranial pressure (ICP) was placed in the subarachnoid space under the subocciptal membrane. At either side of the skull, 3 mm from the midline and 4 mm anteriorly from the bregma, holes were drilled through the skull bone down to dura mater (without perforation) allowing the placement of two laser-Doppler flow probes to measure cortical CBF. Finally, a 27G blunt canula with side hole was introduced 6.5 mm anterior to bregma in the midline at an angle of 30° to the vertical. With the aperture pointing to the right, the needle was lowered until the tip reached the skull base 2 to […] anterior to the chiasma. After 30 minutes of equilibration 250 μl blood was withdrawn from the tail catheter and injected intracranially via this canula at a pressure equal to the mean arterial blood pressure (MABP) (80-100 mmHg). Subsequently the rat was kept under anaesthesia for another 60 minutes to allow recovery from the cerebral insult after which catheters were removed and incisions closed. The rat was then revitalized and extubated. A subcutaneous injection of carprofen (4.0 mg/kg) (Pfizer, Denmark) was administered and the rat was hydrated subcutaneously using […] isotonic sodium chloride at the end of the operation and at day one.

[1] = test system: MCA and BA from rats with induced SAH; experiment: Myograph contractile response to 5-CT in cerebral arteries of treated SAH rats; design: species or system rat; conditions: treatment in vivo, compared to SAH rats; for 5-CT contraction, first 5-HT1B and second 5-HT2A phases: BA; for 5-CT contraction Emax(1) / 5-CT contraction Emax(2), pEC50(1) and pEC50(2): MCA
Protocol: (§1) After 48 hours of observation sham, SAH treated with SB386023-b or treated with the PKC inhibitor RO-31-7549 or U0126 or SAH+vehicle operated rats (see above SAH model) were anaesthetized with CO2 and decapitated. The brains were quickly removed and chilled in ice-cold bicarbonate buffer solution (see composition below). Under a dissection microscope, the middle cerebral artery (MCA), the basilar artery (BA) and circle of Willis were carefully dissected free from the brain and cleared of connective tissue. The MCA and BA were immediately mounted in myographs for in vitro pharmacology or snap frozen at −80° C. and examined by real-time PCR.
In vitro Pharmacology Myograph Experiments For contractile experiments a sensitive myograph was used for recording the isometric tension in isolated cerebral arteries (Hogestatt et al., (1983, Mulvany and Helpern, 1977). The vessels were cut into 1 mm long cylindrical segments and mounted on two 40 μm in diameter stainless steel wires in a Myograph (Danish Myo Technology A/S, Denmark). One wire was connected to a force displacement transducer attached to an analog-digital converter unit (ADInstruments, Oxford, UK). The other wire was connected to a micrometer screw, allowing fine adjustments of vascular tone by varying the distance between the wires. Measurements were recorded on a computer by use of a PowerLab unit (ADInstruments). The segments were immersed in a temperature controlled buffer solution (37° C.) of the following composition (mM) NaCl 119, NaHCO3 15, KCl 4.6, MgCl2 1.2, NaH2PO4 1.2, CaCl2 1.5 and glucose 5.5. The buffer was continuously aerated with oxygen enriched with 5% CO2 resulting in a pH of 7.4. The vessels were stretched to an initial resting tone of 2 mN and then allowed to stabilize at this tone for 1 hour. The contractile capacity was determined by exposing the vessels to an isotonic solution containing 63.5 mM of K+, obtained by partial change of NaCl for KCl in the above buffer. The contraction induced by K+ was used as reference for the contractile capacity. Only vessels responding by contraction of at least 2.0 mN to potassium for BA and 0.8 mN to potassium for MCA were included in the study. The presence of the endothelium was checked by precontracting the vessel using 5-HT (10^−6.5M) (Sigma, St Louis, USA) and subsequently exposing the segments to carbachol (10^−5 M) (Sigma, St Louis, USA). A relaxant response of the precontracted tension was considered indicative of a functional endothelium (Hansen-Schwartz et al., 2003a).
Concentration-response curves were obtained by cumulative application of 5-CT (Sigma, St. Louis, USA) in the concentration range 10^−12 to 10^−5 M, ET-1 (AnaSpec, San Jose, USA) in the concentration range 10^−14 to 10^−7 M and Ang II (Sigma, St. Louis, USA) in the concentration range 10^−12 to 10^−6 M. Before application of Ang II the arteries were pretreated with the AT2 receptor antagonist PD123319 (10^−5.5 M) for 30 minutes (a kind gift from Dr P. Morsing, Astra-Zeneca, Molndal, Sweden).
Data are expressed as mean±standard error of the mean (s.e.m.), and n refers to the number of rats. Statistical analyses were performed with Kruskal-Wallis non-parametric test with Dunn's post-hoc test, where P<0.05 was considered significant. In vitro Pharmacology Contractile responses in each segment are expressed as percentage of the 63.5 mM K+ induced contraction. Emax value represents the maximum contractile response elicited by an agonist and the pEC50 the negative logarithm of the drug concentration that elicited half the maximum response. For biphasic responses, Emax(1) and pEC50(1) describes the high affinity phase and Emax(2) and pEC50(2) describes the low affinity phase.

MCA and BA from SAH rats = experiment: Myograph contractile response to ET-1 in cerebral arteries of treated SAH rats; design: species or system rat; conditions: in vivo treated SAH rats compared to SAH rats, no significant difference to sham
Protocol: as §1
In vitro Pharmacology Myograph Experiments For contractile experiments a sensitive myograph was used for recording the isometric tension in isolated cerebral arteries (Hogestatt et al., (1983, Mulvany and Helpern, 1977). The vessels were cut into 1 mm long cylindrical segments and mounted on two 40 μm in diameter stainless steel wires in a Myograph (Danish Myo Technology A/S, Denmark). One wire was connected to a force displacement transducer attached to an analog-digital converter unit (ADInstruments, Oxford, UK). The other wire was connected to a micrometer screw, allowing fine adjustments of vascular tone by varying the distance between the wires. Measurements were recorded on a computer by use of a PowerLab unit (ADInstruments). […]

SMILES	physiological parameters (MABP, pCO2, pO2, hematocrit, temperature), difference between groups (rats with induced SAH)	5-CT contraction, first 5-HT1B and second 5-HT2A phases [1]	5-CT contraction Emax(1) [1]	5-CT contraction Emax(2), pEC50(1) and pEC50(2) [1]	ET-1 induced contractile response (MCA and BA from SAH rats)
Cn1cc(C2=C(c3cn(CCCN)c4ccccc34)C(=O)NC2=O)c2ccccc21 [RO-31-7549]	No statistical difference	downregulated	significantly reduced	tendency to decrease	significantly attenuated
Oc1cc(-c2nc(-c3ccccc3)[nH]c2-c2ccncc2)ccc1Cl [SB386023-b]	No statistical difference	downregulated	significantly reduced	tended to decrease	significantly attenuated
N#CC(=C(/N)Sc1ccccc1N)/C(C#N)=C(\N)Sc1ccccc1N [U0126]	No statistical difference		significantly reduced	tended to decrease	
